Half-life data for 6 molecules are collected here from US11643429B2, “Compounds and methods for the treatment of ocular disorders” (Azura Ophthalmics Ltd., priority 2019, dated 2023).

The nature of data set [1]: Rabbit Cornea Homogenate Stability Assay (Rabbit Cornea Esterase Assay). The data set is classed as in vitro ADME. To be noted: New Zealand White, 37° C., half-life of parent conjugate. As for the experimental part:
Determining Rabbit Cornea Homogenate stability of the test compounds was performed using HPLC-MS. The assay was performed at two concentrations of Rabbit Cornea Homogenate (0.15 mg/ml and 0.45 mg/ml total protein) so that any hydrolysis observed could be assigned as esterase dependent or not.
Five rabbit corneas (e.g. New Zealand Whites) of approx. 50 mg each were sliced and scraped with a scalpel and tweezers until reduced to small (1-3 mm), thin pieces. These were transferred into a tared vial and accurately weighed, then diluted with 10 volumes aqueous PBS pH7.4
Sample was cooled intermittently on ice and shear homogenized for 3 minutes, then centrifuged for 3 min at 3000 rpm. The supernatant was pipetted off into a vial, and total protein concentration determined at 280 nm. Sample was stored at −78° C.
10 mM Compound stocks were diluted to 100 μM in a 96 deep-well plate: 10 μl of 10 mM Compound stock was added to 990 μl 50 mM HEPES, pH7.5 buffer.
Compounds were further diluted to 10 μM: 100 μl of 100 μM compound was added to 900 μl 50 mM HEPES, pH7.5 buffer.
Esterase homogenate was diluted to 300 ng/μl and 900 ng/μl
A heater shaker was set to 37° C. Into a suitable 96 well plate (Run Plate), 75 μl of 300 or 900 ng/μl esterase homogenate was pipetted into each of the required wells (2 min, 5 min, 10 min, 20 min and 45 min). The plate was sealed and then warmed at 37° C. for 5 min. Another 96 well PCR plate was put on ice (Kill Plate). To this was added 100 μl of MeCN to each well, labelled 0 min 2 min, 5 min, 10 min, 20 min and 45 min. The plate was covered to minimise evaporation. For the T=0 sample only, to the 100 μl cold MeCN stop solution was added 50 μl of 300 or 900 ng/μl esterase homogenate followed by 50 μl of 10 μM compound solution For the remaining timepoints, 75 μl of 10 μM compound solution was added to the Run Plate starting from T=45 min row and ending with T=2 min row. At the appropriate time point, 100 μl of the assay mixture was added to the matching kill plate well containing 100 μl of cold MeCN. Samples were analysed as soon as practicable by LCMS (Waters Xevo TQ-S or Micromass Ultima). Parent conjugate and parent concentrations were determined against appropriate standard response curves and the half-life (T1/2) of the parent conjugate was calculated using the peak area of the parent conjugate at each time point in the linear region of the log-linear plot.

A short description of data set [2]: Aqueous Hydrolysis Stability Assay. The settings on record: 50 mM HEPES buffer pH 7.5; HEPES pH 7.5, room temperature; read-out: T1/2 Aq Stability. The data set is classed as physicochemical. How it is done: Determination of aqueous stability of the test compounds was performed using HIPLC-MS. A test compound 10 mM stock solution was prepared in DMSO. 10 μl of the DMSO stock solution was dissolved in 990 μl of 50 mM HEPES pH 7.5 buffer or 1:1 (v/v) of Acetonitrile:Water to make a 100 μM solution. Final DMSO concentration was 1%. The solution was kept at room temperature and injected without delay into the LCMS (Waters Xevo TQ-S or Micromass Ultima). Additional injections were performed at appropriate time points. Half-life (T1/2) of the parent conjugate was calculated using the peak area of the parent conjugate at each time point in the linear region of the log-linear plot.

Data set [3] can be described thus: Aqueous Hydrolysis Stability Assay. To be noted: New Zealand White, rabbit, rabbit cornea homogenate (esterase assay) in HEPES buffer, pH 7.5; ND, estimated from esterase assay; read-out: T1/2 Aq Stability. The data set is classed as physicochemical.
Where [4] appears, read: pH 7.5, Rabbit Cornea Homogenate 0.15 mg/ml total protein, read-out: T1/2 Esterase (min) (0.15 mg/ml Homogenate).
Setting [5] is: pH 7.5, Rabbit Cornea Homogenate 0.45 mg/ml total protein, read-out: T1/2 Esterase (min) (0.45 mg/ml Homogenate).

As to `CC[C@H]1OC(=O)[C@H](C)[C@@H](O[C@H]2C[C@@](C)(OC)[C@@H](O)[C@H](C)O2)[C@H](C)[C@@H](O[C@@H]2O[C@H](C)C[C@H](N(C)C)[C@H]2OC(=O)CCOCCOCCOCCOCCO)[C@](C)(O)C[C@@H](C)CN(C)[C@H](C)[C@@H](O)[C@]1(C)O` [Compound 5, (2S,3R,4S,6R)-4-(Dimethylamino)-2-(((2R,3S,4R,5R,8R,10R,11R,12S,13S,14R)-2-ethyl-3,4,10-trihydroxy-13-(((2R,4R,5S,6S)-5-hydroxy-4-methoxy-4,6-dimethyltetrahydro-2H-pyran-2-yl)oxy)-3,5,6,8,10,12,14-heptamethyl-15-oxo-1-oxa-6-azacyclopentadecan-11-yl)oxy)-6-methyltetrahydro-2H-pyran-3-yl 1-hydroxy-3,6,9,12-tetraoxapentadecan-15-oate], the values for the half-life at 5 µM in data set [1] (setting [4]) and in data set [1] (setting [5]) were 21 min and 24 min, respectively. The half-life at 100 µM in data set [2] turned out to be 1.2 h.

For the molecule `CC[C@H]1OC(=O)[C@H](C)[C@@H](O[C@H]2C[C@@](C)(OC)[C@@H](O)[C@H](C)O2)[C@H](C)[C@@H](O[C@@H]2O[C@H](C)C[C@H](N(C)C)[C@H]2OC(=O)O[C@H](C)C(=O)OC)[C@](C)(O)C[C@@H](C)CN(C)[C@H](C)[C@@H](O)[C@]1(C)O` [Compound 10, Methyl (R)-2-(((((2S,3R,4S,6R)-4-(dimethylamino)-2-(((2R,3S,4R,5R,8R,10R,11R,12S,13S,14R)-2-ethyl-3,4,10-trihydroxy-13-(((2R,4R,5S,6S)-5-hydroxy-4-methoxy-4,6-dimethyltetrahydro-2H-pyran-2-yl)oxy)-3,5,6,8,10,12,14-heptamethyl-15-oxo-1-oxa-6-azacyclopentadecan-11-yl)oxy)-6-methyltetrahydro-2H-pyran-3-yl)oxy)carbonyl)oxy)propanoate], the half-life at 5 µM is 53 min in data set [1] (setting [4]), 49 min in data set [1] (setting [5]) and roughly 0.85 h in data set [3].

For the molecule `CC[C@H]1OC(=O)[C@H](C)[C@@H](O[C@H]2C[C@@](C)(OC)[C@@H](O)[C@H](C)O2)[C@H](C)[C@@H](O[C@@H]2O[C@H](C)C[C@H](N(C)C)[C@H]2O)[C@](C)(O)C[C@@H](C)CN(C)[C@H](C)[C@@H](OC(=O)CO)[C@]1(C)O` [Compound 11, (2R,3R,4R,5R,8R,10R,11R,12S,13S,14R)-11-(((2S,3R,4S,6R)-4-(Dimethylamino)-3-hydroxy-6-methyltetrahydro-2H-pyran-2-yl)oxy)-2-ethyl-3,10-dihydroxy-3-(((2R,4R,5S,6S)-5-hydroxy-4-methoxy-4,6-dimethyltetrahydro-2H-pyran-2-yl)oxy)-3,5,6,8,10,12,14-heptamethyl-15-oxo-1-oxa-6-azacyclopentadecan-4-yl 2-hydroxyacetate], the half-life at 5 µM in data set [1] (setting [4]) and in data set [1] (setting [5]) was greater than 120 min throughout. For the same molecule, the half-life at 100 µM in data set [2] is greater than 2 h.

`CC[C@H]1OC(=O)[C@H](C)[C@@H](O[C@H]2C[C@@](C)(OC)[C@@H](O)[C@H](C)O2)[C@H](C)[C@@H](O[C@@H]2O[C@H](C)C[C@H](N(C)C)[C@H]2O)[C@](C)(O)C[C@@H](C)CN(C)[C@H](C)[C@@H](OC(C)=O)[C@]1(C)O` [Compound 12, (2R,3R,4R,5R,8R,10R,11R,12S,13S,14R)-11-(((2S,3R,4S,6R)-4-(Dimethylamino)-3-hydroxy-6-methyltetrahydro-2H-pyran-2-yl)oxy)-2-ethyl-3,10-dihydroxy-13-(((2R,4R,5S,6S)-5-hydroxy-4-methoxy-4,6-dimethyltetrahydro-2H-pyran-2-yl)oxy)-3,5,6,8,10,12,14-heptamethyl-15-oxo-1-oxa-6-azacyclopentadecan-4-yl acetate]: the half-life at 5 µM in data set [1] (setting [4]) and in data set [1] (setting [5]) was greater than 120 min each time. Also, the half-life at 100 µM in data set [2] was greater than 2 h.

With `CC[C@H]1OC(=O)[C@H](C)[C@@H](O[C@H]2C[C@@](C)(OC)[C@@H](OC(C)=O)[C@H](C)O2)[C@H](C)[C@@H](O[C@@H]2O[C@H](C)C[C@H](N(C)C)[C@H]2O)[C@](C)(O)C[C@@H](C)CN(C)[C@H](C)[C@@H](O)[C@]1(C)O` [Compound 13, (2S,3S,4R,6R)-6-(((2R,3S,4R,5R,8R,10R,11R,12S,13S,14R)-11-(((2S,3R,4S,6R)-4-(Dimethylamino)-3-hydroxy-6-methyltetrahydro-2H-pyran-2-yl)oxy)-2-ethyl-3,4,10-trihydroxy-3,5,6,8,10,12,14-heptamethyl-15-oxo-1-oxa-6-azacyclopentadecan-13-yl)oxy)-4-methoxy-2,4-dimethyltetrahydro-2H-pyran-3-yl acetate], the half-life at 5 µM in data set [1] (setting [4]) and in data set [1] (setting [5]) was greater than 120 min in each case. In data set [2], the half-life at 100 µM is greater than 2 h.

As to `CC[C@H]1OC(=O)[C@H](C)[C@@H](O[C@H]2C[C@@](C)(OC)[C@@H](O)[C@H](C)O2)[C@H](C)[C@@H](O[C@@H]2O[C@H](C)C[C@H](N(C)C)[C@H]2OC(=O)SC[C@H](NC(C)=O)C(=O)OC)[C@](C)(O)C[C@@H](C)CN(C)[C@H](C)[C@@H](O)[C@]1(C)O` [Compound 14, Methyl N-acetyl-S-((((2S,3R,4S,6R)-4-(dimethylamino)-2-(((2R,3S,4R,5R,8R,10R,11R,12S,13S,14R)-2-ethyl-3,4,10-trihydroxy-13-(((2R,4R,5S,6S)-5-hydroxy-4-methoxy-4,6-dimethyltetrahydro-2H-pyran-2-yl)oxy)-3,5,6,8,10,12,14-heptamethyl-15-oxo-1-oxa-6-azacyclopentadecan-11-yl)oxy)-6-methyltetrahydro-2H-pyran-3-yl)oxy)carbonyl)-L-cysteinate], the half-life at 5 µM in data set [1] (setting [4]) and in data set [1] (setting [5]) was greater than 120 min in each case. Also, the half-life at 100 µM in data set [2] was greater than 2 h.
